Measured values: US20220387485A1, “METHODS OF TREATING CANCER WITH A COMBINATION OF A PLATINUM-BASED AGENT AND AN ANTI-TISSUE FACTOR ANTIBODY-DRUG CONJUGATE” (priority 2019, published 2022)

What was measured:
[1] = tested on: recurrent or metastatic squamous carcinoma of the uterine cervix; settings: single agent, cited from earlier work
[2] = tested on: HuPrime® cervical xenograft model CV1248 [P3]; experiment: Cervical cancer PDX mouse model, tisotumab vedotin with carboplatin (Example 3); format: in vivo, BALB/c nude mice; settings: for Tumor growth (FIGS. 3A and 3B): single agent, tisotumab vedotin 2 mg/kg, carboplatin 40 or 80 mg/kg, day 0, 7, 14 intravenous
Method: The in vivo anti-tumor efficacy of tisotumab vedotin in combination with carboplatin was evaluated in a patient-derived xenograft (PDX) mouse model in female BALB/c nude mice (Crown Bioscience [Taicang] Inc.). Xenografts were derived from tumor specimens from cancer patients. Tumor fragments were obtained from xenografts in serial passage in nude mice. Tumors were cut into fragments of 2-4 mm diameter and placed in phosphate-buffered saline (PBS) until subcutaneous implantation. A cervical cancer PDX model (HuPrime® cervical xenograft model CV1248 [P3]; Crown Bioscience Inc.) was used in this experiment. Tumor size was determined by caliper measurement at least two times a week and tumor volume was calculated as […]. When tumors reached an average volume of 150 mm^3, mice were randomized in 7 groups (10 mice per treatment group). The day of randomization was designated day 0. Mice were treated with the following by intravenous injections: 1) tisotumab vedotin alone at a dose level of 2 mg/kg, provided on day 0, day 7 and day 14; 2) carboplatin (Selleck Chemicals, cat. no. S121511) alone at a dose of 40 mg/kg or 80 mg/kg, provided on day 0, day 7 and day 14; 3) tisotumab vedotin at a dose level of 2 mg/kg, provided on day 0, day 7 and day 14 in combination with carboplatin at a dose of 40 mg/kg or 80 mg/kg, provided on day 0, day 7 and day 14; 4) IgG1 isotype control at a dose of 2 mg/kg provided on day 0, day 7 and day 14; or 5) IgG1-MMAE control at a dose of 2 mg/kg provided on day 0, day7 and day 14. […] Mice were housed in individually ventilated (IVC) cages, up to a maximum of five mice per cage and identified by ear tags. To determine whether there were statistically significant differences between tumor volumes in control and treatment groups, tumor volumes in the treatment groups were compared with those in the control group (e.g., treatment groups vs IgG1-MMAE control) and combination treatment groups were compared with groups treated with either of the compounds alone, using Mann-Whitney analysis at the last day that all groups were intact, i.e., day 20. For analysis of progression-free survival time (tumor size cut-off 750 mm^3), Mantel-Cox analysis was performed on Kaplan-Meier plots.

[3] = tested on: HuPrime® cervical xenograft model CV1248 [R4P5]; experiment: Cervical cancer PDX mouse model, tisotumab vedotin with cisplatin (Example 1); format: in vivo, BALB/c nude mice; settings: single agent; for Tumor growth (FIG. 1A-C): tisotumab vedotin 2 mg/kg and 4 mg/kg day 0, 7, cisplatin 4 mg/kg day 0, 7, 14, intravenous; for Survival (FIGS. 1D and 1E): tisotumab vedotin 2 mg/kg and 4 mg/kg, cisplatin 4 mg/kg, tumor size cut-off 1000 mm^3
Method: The in vivo anti-tumor efficacy of tisotumab vedotin in combination with cisplatin was evaluated in a patient-derived xenograft (PDX) mouse model in BALB/c nude mice (Crown Bioscience Inc.). Xenografts were derived from tumor specimens from cancer patients. Establishment and characterization of the PDX model was performed following primary implantation into nude mice. Tumor xenografts were passaged approximately three to five times until establishment of stable growth patterns. Tumor fragments were obtained from xenografts in serial passage in nude mice. Tumors were cut into fragments of 2-3 mm diameter and placed in phosphate-buffered saline (PBS) until subcutaneous implantation. A cervical cancer PDX model (HuPrime® cervical xenograft model CV1248 [R4P5]; Crown Bioscience Inc.) was used in this experiment. Tumor size was determined by caliper measurement at least two times a week and tumor volume was calculated as 0.5×length×width. When tumors reached the volume of 200 mm^3, mice were randomized in 11 groups (7-8 mice per treatment group). Mice were treated with the following by intravenous injections: 1) tisotumab vedotin alone at a dose level of 0.5 mg/kg, 1 mg/kg, 2 mg/kg or 4 mg/kg provided on day 0 and day 7 of treatment; 2) cisplatin alone at a dose of 4 mg/kg provided on day 0, day 7 and day 14 of treatment; 3) tisotumab vedotin at a dose level of 0.5 mg/kg, 1 mg/kg, 2 mg/kg or 4 mg/kg provided on day 0 and day 7 of treatment in combination with cisplatin at a dose of 4 mg/kg provided on day 0, day 7 and day 14 of treatment; 4) IgG1 isotype control at a dose of 4 mg/kg provided on day 0 and day 7 of treatment; or 5) IgG1-MMAE control at a dose of 4 mg/kg provided on day 0 and day 7 of treatment. […] Mice were housed in individually ventilated (IVC) cages, four or five mice per cage and identified by ear tags.
To determine whether there were statistically significant differences between tumor volumes in control and treatment groups, tumor volumes in the treatment groups were compared with those in the control group (e.g., treatment groups vs IgG1-MMAE control) using Mann-Whitney analysis at the last day that all groups were intact, i.e., day 38. For survival analysis (tumor volume cut-off was 1,000 mm^3). Mantel-Cox analysis was performed on Kaplan-Meier plots with a cut-off set at tumor volume >1,000 mm^3.

[4] = tested on: bladder xenograft model BXF1036; experiment: Bladder cancer PDX mouse model, tisotumab vedotin with cisplatin (Example 2); format: in vivo, Crl:NMRI-Foxn1^nu nude mice; settings: single agent; for Tumor growth (FIG. 2A-C): tisotumab vedotin 0.5 mg/kg day 1 intravenously, cisplatin 2 mg/kg day 1 and 8 subcutaneously; for Survival (FIG. 2D): tisotumab vedotin 0.5 mg/kg, cisplatin 2 mg/kg, tumor size cut-off 500 mm^3
Method: The in vivo anti-tumor efficacy of tisotumab vedotin in combination with cisplatin was evaluated in A PDX mouse model in female Crl:NMRI-Foxn1^nu (Envigo RMS SARL, France) nude mice (Charles River Discovery Research Services). Xenografts were derived from tumor specimens from cancer patients. Establishment and characterization of the PDX model was performed following primary implantation into nude mice. Tumor xenografts were passaged approximately three to five times until establishment of stable growth patterns. Tumor fragments were obtained from xenografts in serial passage in nude mice. Tumors were cut into fragments of 3-4 mm diameter and placed in phosphate-buffered saline (PBS) until subcutaneous implantation. A bladder cancer PDX model (bladder xenograft model BXF1036; Charles River Discovery Research Services) was used in this experiment. Tumor size was determined by caliper measurement at least two times a week and tumor volume was calculated as 0.52×length×width. When tumors reached the volume of 50-250 mm^3, mice were randomized in 5 groups (10 mice per treatment group). Mice were treated with the following: 1) tisotumab vedotin alone at a dose level of 0.5 mg/kg provided on day 1 of treatment; 2) cisplatin alone at a dose of 2 mg/kg provided on day 1 and day 8 of treatment; 3) tisotumab vedotin at a dose level of 0.5 mg/kg provided on day 1 of treatment in combination with cisplatin at a dose of 2 mg/kg provided on day 1 and day 8 of treatment; 4) IgG1 isotype control at a dose of 0.5 mg/kg provided on day 1 of treatment; or 5) IgG1-MMAE control at a dose of 0.5 mg/kg provided on day 1 of treatment. IgG1 isotype control, IgG1-MMAE control and tisotumab vedotin were each in PBS and injected intravenously. Cisplatin was in 0.9% NaCl and injected subcutaneously. […] Mice were housed in individually ventilated (IVC) cages, with a maximum of five mice per cage, and identified by ear tags.
To determine whether there were statistically significant differences between tumor volumes in control and treatment groups, tumor volumes in the treatment groups were compared with those in the control groups (e.g., IgG1-MMAE control, tisotumab vedotin alone or cisplatin alone) using Mann-Whitney analysis at the last day that all groups were intact, i.e., day 25. Statistical analysis of the difference between groups treated with tisotumab vedotin in combination with cisplatin and groups treated with either tisotumab vedotin alone or cisplatin alone was performed on day 32.
Tumor progression was plotted in a Kaplan-Meier plot, with a cut-off set at a tumor volume >500 mm^3. […]

[5] = tested on: stage IVB, recurrent, or persistent squamous cell carcinoma of the cervix; settings: cited from earlier work
[6] = tested on: relapsed, recurrent, and/or metastatic cervical cancer; settings: cited from earlier work
[7] = tested on: PD-L1-positive recurrent or metastatic cervical cancer (r/mCC); settings: 2 L+; 42% of patients previously treated with bevacizumab; cited from earlier work

N.N.O=C([O-])C1(C(=O)[O-])CCC1.[Pt+2] [Carboplatin, carboplatin]
overall response rate ([1]; 6/41): 15%
major toxic effects: anemia [1]: 47%
major toxic effects: leukopenia [1]: 38%
major toxic effects: nausea and vomiting [1]: 48%
major toxic effects: thrombocytopenia [1]: 22%
Average tumor volume Mann-Whitney Day 20 P value ([2]; carboplatin 40 mg/kg vs IgG1-MMAE): 0.5787
Average tumor volume Mann-Whitney Day 20 P value ([2]; carboplatin 80 mg/kg vs IgG1-MMAE): 0.1716
Tumor growth (FIGS. 3A and 3B) [2]: did not inhibit tumor growth

N.N.[Cl][Pt][Cl] [Cisplatin]
Tumor growth (FIG. 1A-C) [3]: inhibited tumor growth
Survival (FIGS. 1D and 1E) [3]: prolonged survival
Tumor growth (FIG. 2A-C) [4]: inhibited tumor growth
Survival (FIG. 2D) [4]: prolonged survival
median PFS ([5]; P<0.001 between arms): 2.8 months
Objective responses (OR) ([5]; P=0.002 between arms): 19%
median survival ([5]; at the time of data cutoff, no difference): 8.8 months
Objective responses: complete ([5]; in vivo): 6%
Objective responses: partial ([5]; in vivo): 13%

Tisotumab vedotin
AEs of grade 1-2 conjunctivitis ([6]; in vivo): frequently reported
Clinically relevant perturbations in activated partial thromboplastin time (aPTT) or prothrombin time (PT) ([6]; in vivo): have not been observed
Epistaxis, frequency among bleeding AEs ([6]; in vivo): most common reported AE
Epistaxis, severity ([6]; in vivo): nearly all of the cases are grade 1
Peripheral neuropathy, grade of the majority of the reported cases ([6]; in vivo): grade 1-2
Peripheral neuropathy, share of subjects ([6]; subjects who received treatment with tisotumab vedotin): approximately 35%
Tumor growth (FIG. 1A-C) [3]: efficiently inhibited tumor growth
Survival (FIGS. 1D and 1E) [3]: prolonged survival
Tumor growth (FIG. 2A-C) [4]: efficiently inhibited tumor growth
Survival (FIG. 2D) [4]: prolonged survival
Tumor growth (FIGS. 3A and 3B) [2]: efficiently inhibited tumor growth
Average tumor volume Mann-Whitney Day 20 P value ([2]; tisotumab vedotin 2 mg/kg vs IgG1-MMAE): 0.0068

pembrolizumab
objective response rate (ORR) [7]: 14%
